Data published in article PMC12292862 (Biomedicines, 2025).
Entries after “also recorded” stand apart in the source; their conditions may differ. Marks after values point to notes of the source that are not given here.

Assays:
[1] = test system: carrageenan-induced rat paw edema; test: Carrageenan-induced paw edema; assay type: in vivo; settings: for inhibition of paw edema after 1 h / inhibition of paw edema after 2 h / inhibition of paw edema after 3 h: 200 mg/kg i.p.; for inhibition of paw edema after 1 h: 1 h after carrageenan; for inhibition of paw edema after 2 h: 2 h after carrageenan; for inhibition of paw edema after 3 h: 3 h after carrageenan; for inhibition of paw edema after 4 h: compounds 200 mg/kg i.p., indomethacin 10 mg/kg, 4 h after carrageenan
Excerpt: Rats’ carrageenan-induced paw edema model was used to assess the novel synthesized drugs’ anti-inflammatory properties. A total of 180–190 g of male Wistar rats were used for the experiments. In the animal house at Sohag University in Sohag, Egypt, every animal was kept in careful laboratory conditions. After being weighed and divided into six groups at random, the animals are housed for a week to reduce stress and allow them to get used to the laboratory environment. The chemicals that were synthesized were administered intraperitoneally (i.p.) to rats at a dosage of 200 mg/kg. The control group received only vehicles. […] The rats were given a 0.2 mL sub-plantar injection of a 1% (w/v) suspension of carrageenan (made in PBS) in their right hind paw thirty minutes following the injection of synthesized compounds [33]. […] The % inhibition of paw edema was calculated by the following formula [34]:%Inhibition = ((Mean edema of control group − Mean edema of test compound)/(Mean edema of control group)) × 100.

[2] = test system: superoxide dismutase (SOD); test: Paw tissue oxidative stress biomarker SOD; assay type: in vivo, rat; settings: carrageenan rats, 200 mg/kg i.p.
Description: (§1) The selective pro-inflammatory cytokines were measured quantitatively using rat-specific Enzyme-Linked Immunosorbent Assay (ELISA) kits from Thermo Scientific™ (Waltham, MA, USA) with CAT. No. ERCRP for CRP; from Elabscience with Cat. No. E-EL-R2856 for TNF-α and with Cat. No. E-EL-R0011 for IL-1α; from CUSABIO, Houston, TX, USA, with Cat. No. CSB-E04640r for IL-6; and from My BioSource Co, USA, with Cat. No. MBS825017 for IL-1β, with Cat. No. MBS753621 for rat cyclooxygenase 1, and with Cat. No. MBS266603 for rat cyclooxygenase 2. Meanwhile, an ovine COX inhibitor-screening in vitro assay (item number 760111) was obtained from Cayman Chemical (Ann Arbor, MI, USA). We purchased malondialdehyde (MDA), glutathione (GSH), and superoxide dismutase (SOD) detection kits from Nanjing Jiancheng Bio-Technology Co. Ltd. (Nanjing, China).
(§2) At the end of the experiments, the rats were subjected to anesthesia with chloroform and then sacrificed. Blood was obtained via heart puncture for biochemical analysis. Following the animals’ sacrifice, the paws were taken out, decalcified, and stored in a 10% formalin solution. To prepare the tissue samples, they were sliced into thicknesses of 5 µm. Hematoxylin and eosin dyes were used to create the histology slides, which were then examined using a photomicroscope (Meiji Techno®, Iruma, Japan) for pathological alterations. The presence of inflammation was documented. Protease/phosphatase inhibitor cocktail in cold phosphate-buffered saline (1:4) (pH 7, 0.01 mol/L) (Cat. No. PPC1010, Sigma-Aldrich) was used to homogenize each rat’s paw piece in a glass homogenizer. After filtering and centrifuging the resultant homogenate for five minutes at 5000× g, oxidative stress biomarkers like GSH, SOD, and MDA were measured. The trials were repeated three times.

IL-1α = test: Serum IL-1α (ELISA) in carrageenan-injected rats; assay type: in vivo, rat; settings: compounds 200 mg/kg i.p., indomethacin 10 mg/kg, mean ± SD
Description: as §1, §2

rat cyclooxygenase 1 = test: COX-1 level in carrageenan-injected paw (ELISA); assay type: in vivo; settings: compounds 200 mg/kg i.p., indomethacin 10 mg/kg, mean ± SD
Description: as §1, §2

rat paw tissue = test: Histopathological examination of paw tissue (HE); assay type: in vivo; settings: carrageenan-injected paw; compounds 200 mg/kg i.p., indomethacin 10 mg/kg
Excerpt: as §2

COX-1 = biological target: T1, COX-1 (Ovis aries, UniProt P05979); test: In vitro colorimetric COX (ovine) inhibitor-screening assay, COX-1; assay type: biochemical; settings: ovine COX-1, tested at 50, 100 and 150 µg/mL
T1 construct: purchased Cayman Chemical 760111
T1 sequence (P05979 25-600): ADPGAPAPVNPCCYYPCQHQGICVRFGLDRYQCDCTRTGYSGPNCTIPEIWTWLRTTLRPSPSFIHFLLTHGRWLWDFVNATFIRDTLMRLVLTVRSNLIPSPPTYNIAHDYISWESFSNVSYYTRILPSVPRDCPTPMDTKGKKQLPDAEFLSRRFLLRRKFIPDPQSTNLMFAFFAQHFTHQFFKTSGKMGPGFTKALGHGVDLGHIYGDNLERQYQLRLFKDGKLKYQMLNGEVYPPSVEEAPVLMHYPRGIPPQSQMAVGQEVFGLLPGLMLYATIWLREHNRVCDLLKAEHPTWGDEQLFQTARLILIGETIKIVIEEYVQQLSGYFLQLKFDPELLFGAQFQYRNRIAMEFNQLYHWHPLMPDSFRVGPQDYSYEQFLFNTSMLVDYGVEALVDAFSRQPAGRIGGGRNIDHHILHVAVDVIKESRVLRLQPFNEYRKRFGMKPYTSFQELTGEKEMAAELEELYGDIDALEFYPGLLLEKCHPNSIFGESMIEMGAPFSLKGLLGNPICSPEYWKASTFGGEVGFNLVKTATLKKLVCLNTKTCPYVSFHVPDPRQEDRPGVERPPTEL
Description: The test compounds’ ability to suppress COX-1 and COX-2 was evaluated using a colorimetric COX (ovine) inhibitor-screening method (Cayman Chemical, Item Number 760111). In brief, 150 μL of assay buffer, 10 μL of heme, 10 μL of enzyme (COX-1 or COX-2), and 10 μL of compound (1 mg/mL) make up the reaction mixture. In a final volume of […], the test compounds were evaluated at doses of 50, 100, and 150 μg/mL. The cyclooxygenase peroxidase component is used in the experiment. By monitoring the appearance of oxidized N, N, […] (TMPD) at 590 nm, the peroxidase activity is measured […]. […] The following formula was used to determine the % COX inhibition: The COX inhibition activity percentage is equal to (1 − T/C ×100), where T is the inhibitor well’s absorbance and C is the starting activity’s absorbance at 100% without the inhibitor well.

Wistar rats = test: Acute toxicity pilot study (OECD 423); assay type: in vivo; settings: rat, i.p., 200 mg/kg
Description: According to OECD guidelines (Testing of Chemical Number 423), the study was carried out. In this study, mature male Wistar rats in good health were selected. After a 24 h fast, the animals were divided into groups of six. The test compounds were injected intraperitoneally at dosages ranging from 100 mg to 2000 mg per kilogram, dissolved in 2% Tween 80 saline solutions (v/v). The animals in the control groups were given just the vehicle, which was Tween 80 in 0.9% normal saline. […] Thus, 200 mg/kg (ED 50), which is considered one-tenth of the LD 50, was chosen as the anti-inflammatory dose.

[3] = listed as compound 3, 200 mg/kg

| SMILES | inhibition of paw edema after 1 h [1] | inhibition of paw edema after 2 h [1] | inhibition of paw edema after 3 h [1] | inhibition of paw edema after 4 h [1] | SOD activity [2] | IL-1α (IL-1α) | COX-1 level (rat cyclooxygenase 1) | histopathological findings of paw tissue (HE) (rat paw tissue) | COX-1 inhibition % (mean activity) (COX-1) | Ability to feed (Wistar rats) | Change in skin color (Wistar rats) | Death (Wistar rats) | Diarrhea (Wistar rats) | Drowsiness (Wistar rats) | Dyspnea (Wistar rats) | Micturition (Wistar rats) | Seizures (Wistar rats) | Weight loss (Wistar rats) | further results |
| --- | --- | --- | --- | --- | --- | --- | --- | --- | --- | --- | --- | --- | --- | --- | --- | --- | --- | --- | --- |
| NC1=NC2(CCCCCC2)n2nc(C(=O)Nc3ccc(S(N)(=O)=O)cc3)nc2N1 [Compound 1, 5′-Amino-N-(4-sulfamoylphenyl). -1′H-spiro[cycloheptane-1,7′-[1,2,4]triazolo[1,5-a][1,3,5] -triazine] -2′-carboxamide] | 53.6% | 65.74% | 78.52% | 96.31% | notable improvements | 56.97 ± 0.79 ^b pg/mL | 4.31 ± 0.90 ng/mL | mild inflammatory dermal edema | 70% | Normal | Normal | No | Present | Absent | Absent | Normal | Absent | No | Death (Wistar rats; listed as compound 1, 200 mg/kg): no mortality |
| CC1(C)CC(=O)CC2(C1)N=C(N)Nc1nc(C(=O)Nc3ccc(S(N)(=O)=O)cc3)nn12 (stereo not shown) [Compound 2] | – | – | – | 72.08% | notable improvements | 62.82 ± 0.94 ^b pg/mL | 5.24 ± 0.09 ng/mL | moderate edema | 69% | Normal | Normal | No | Present | Absent | Absent | Normal | Absent | No | Death (Wistar rats; listed as compound 2, 200 mg/kg): no mortality |
| NC1=NC2(c3ccccc3Cc3ccccc32)n2nc(C(=O)Nc3ccc(S(N)(=O)=O)cc3)nc2N1 [Compound 3] | 59.5% | 79.93% | 97.23% | 99.69% | – | 40.66 ± 0.43 ^b pg/mL | 2.82 ± 0.08 ng/mL | normal dermis; also recorded: normal dermis without any lesion; also recorded: normal histological structure without edema or lesions | 70% | Normal | Normal | No | Present | Absent | Absent | Normal | Absent | No | SOD activity ([2]; 200 mg/kg): near-control values; SOD activity [2, 3]: 38.48 ± 0.31 U/mg protein; Death (Wistar rats; [3]): no mortality |
